# Data taken from patent US4148795A, “Dithiocarbamate ester bactericides and fungicides” (American Cyanamid Company, priority 1976, dated 1979).
# Values joined by “and” are separate entries in the source; they are usually repeats but may differ in a detail not shown here. Equal values may be shown once. Read-outs that look alike come from different tables or passages of the source.
# Tests used:
# [1] = tested on: Colletotrichum lagenarium; details: in vivo; further: key: 5: clean, no disease; 4: trace of disease; 3: slight disease; 2: moderate disease; 1: severe disease; 0: like controls
# Piricularia oryzae = format: in vivo; design: scale not given here; details: Rice Blast, five days
# Venturia inaequalis [2] = details: in vivo
# Aspergillus niger [3] = assay: Spore germination inhibition; format: cell-based; details: 24 hours
# How it was run: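 Test compound is suspended in water at 100, 10 or 1 ppm. and dispensed into one dram "opticlear" vials. Each vial receives one drop of a spore suspension taken from seven-day Aspergillus niger cultures grown on potato-dextrose agar. Capped vials rotate on a tumbler for 24 hours, then are inspected for inhibition of mycelial growth.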
# Monilinia fructicola [4] = assay: Spore germination inhibition; format: cell-based; details: for inhibition at 1 ppm / inhibition at 10 ppm: 24 hours; for inhibition at 100 ppm: 24 h, read-out: % Inhibition of Spore Germination
# How it was run: (§1)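 Test compounds were suspended in water at 100, 10 or 1 ppm and inoculated with spore suspensions from 7-day (A. niger) or 14-day potato-dextrose agar cultures. Vials were tumbled for 24 hours and then examined for inhibition of mycelial growth.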
# [5] = tested on: Stemphylium sarcinaeforme; assay: Spore germination inhibition; format: cell-based; details: Stemphylium sarciniforme; for inhibition at 100 ppm: 24 h, read-out: % Inhibition of Spore Germination; for inhibition at 1 ppm / inhibition at 10 ppm: 24 hours
# How it was run: as §1
# Aerobacter aerogenes = format: cell-based; details: 100 ppm; subcultures 72 hours at 37° C; further: key: 0: No Effect; 9: Kill of Bacteria; 5: Stasis, but not Kill of all Bacteria
# Staphylococcus aureus = format: cell-based; details: 100 ppm; subcultures 72 hours at 37° C; further: key: 0: No Effect; 9: Kill of Bacteria; 5: Stasis, but not Kill of all Bacteria
# Xanthomonas vesicatoria = format: cell-based; details: 100 ppm; subcultures 72 hours at 37° C; further: key: 0: No Effect; 9: Kill of Bacteria; 5: Stasis, but not Kill of all Bacteria
# Aspergillus niger [6] = assay: Agar dilution plate; format: cell-based; details: An; 100 ppm, 72 hours at 23° C
# How it was run: (§2)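 Step one: blend compound into Sabouraud's dextrose agar to about 100 ppm and let it solidify. Step two: inoculate and incubate around 72 hours at 23° C. Step three: observe growth and record a rating of 0 (no control) or 5 (100% effectiveness), repeating the test twice.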
# Fusarium lycopersici = assay: Agar dilution plate; format: cell-based; details: Fl; 100 ppm, 72 hours at 23° C
# How it was run: as §2
# Monilinia fructicola [7] = assay: Agar dilution plate; format: cell-based; details: Mf; 100 ppm, 72 hours at 23° C
# How it was run: as §2
# Pythium de Baryanum = assay: Agar dilution plate; format: cell-based; details: Pd; 100 ppm, 72 hours at 23° C
# How it was run: as §2
# Rhizoctonia solani = assay: Agar dilution plate; format: cell-based; details: Rs; 100 ppm, 72 hours at 23° C
# How it was run: as §2
# [8] = tested on: Stemphylium sarcinaeforme; assay: Agar dilution plate; format: cell-based; details: Ss; 100 ppm, 72 hours at 23° C
# How it was run: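 Compound incorporated into Sabouraud's dextrose agar at about 100 ppm, inoculated with Stemphylium sarcinaeforme and incubated about 72 hours at 23 °C. Growth scored 0 (no control) or 5 (100% effectiveness), test run in repeat.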
# Pseudomonas solaracaerum = format: cell-based; details: 100 ppm, 72 hours at 23° C; further: key: 0: no control; 5: 100% effectiveness of the test compound against the specified organism
# [9] = tested on: Collectotrichum lagenarium; assay: Agar dilution plate; format: cell-based; details: Cl; 100 ppm, 72 hours at 23° C
# How it was run: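 Compounds were incorporated at about 100 ppm in Sabouraud's dextrose agar, inoculated, and incubated about 72 h at 23 °C. Growth was scored 0 (no control) or 5 (100% effectiveness), and the test was repeated twice.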
# Verticillium albo-atrum = assay: Agar dilution plate; format: cell-based; details: Va; 100 ppm, 72 hours at 23° C
# How it was run: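 Compounds incorporated at about 100 ppm into Sabouraud's dextrose agar, then inoculated with the fungus and incubated about 72 hours at 23° C. Growth scored as 0 (no control) or 5 (100% effectiveness); test repeated twice.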
# Phytophthora infestans = format: in vivo; design: scale not given here; details: Tomato Late Blight, five days
# Venturia inaequalis [10] = assay: Apple scab on field-grown trees; format: in vivo; details: 50% wettable powder
# Excerpt: Apple Scab (Venturia inaequalis)
# (§3) The compound of Example 13 was applied as a foliar spray for ten applications at weekly intervals from May 1 through July 2, and then two more sprays on a two-week schedule ending on July 31.
# (§4) The active compound was applied as a 50% wettable powder having the following composition:
# 50% Active Compound (Example 13 )
# (§5) Rates of 50% wettable applied were:
# (§6) 2 pounds/100 gallons of water
# (§7) 1 pound/100 gallons of water
# (§8) Three tree replicates of each rate
# (§9) Variety: Red Delicious were used.
# [11] = tested on: Red Delicious apple trees; assay: Phytotoxicity on field-grown apple trees; format: in vivo; details: 50% wettable powder, 2 and 1 pounds/100 gallons of water
# Excerpt: as §3, §4, §5, §6, §7, §8, §9
SMILES,disease control index [1],disease control index (Piricularia oryzae; 150 ppm),disease control index (Piricularia oryzae; 300 ppm),disease control index (Venturia inaequalis [2]),inhibition at 1 ppm (Aspergillus niger [3]),inhibition at 10 ppm (Aspergillus niger [3]),inhibition at 100 ppm (Aspergillus niger [3]),inhibition at 1 ppm (Monilinia fructicola [4]),Antibacterial Activity rating (Aerobacter aerogenes),Antibacterial Activity rating (Staphylococcus aureus),Antibacterial Activity rating (Xanthomonas vesicatoria),Agar Dilution Plate rating (Aspergillus niger [6]),Agar Dilution Plate rating (Fusarium lycopersici),Agar Dilution Plate rating (Monilinia fructicola [7]),Agar Dilution Plate rating (Pythium de Baryanum),Agar Dilution Plate rating (Rhizoctonia solani),Agar Dilution Plate rating [8],Agar Dilution Plate rating (Pseudomonas solaracaerum),Agar Dilution Plate rating [9],Agar Dilution Plate rating (Verticillium albo-atrum),also measured
"O=[N+]([O-])CC(SC(=S)N1CCCCC1)c1ccccc1 (stereo not drawn) [Example 16, α-(Nitromethyl)benzyl 1-Piperidinecarbodithioate]",5,5,5,5,–,–,–,–,–,–,–,–,–,–,–,–,–,–,–,–,–
"CN(C)C(=S)SC(C[N+](=O)[O-])c1ccc2c(c1)OCO2 (stereo not drawn) [Example 28, 3,4-(Methylenedioxy)-α-(nitromethyl)benzyl Dimethyldithiocarbamate]",5,0,0,5 and 0,100%,100%,100%,100%,9,5,5,0,0,5 (100% effectiveness of the test compound against the specified organism),5 (100% effectiveness of the test compound against the specified organism),0,5 (100% effectiveness of the test compound against the specified organism),0,5 (100% effectiveness of the test compound against the specified organism),5 (100% effectiveness of the test compound against the specified organism),inhibition at 10 ppm (Monilinia fructicola [4]): 100%; inhibition at 100 ppm (Monilinia fructicola [4]): 100%; inhibition at 100 ppm [5]: 100%; inhibition at 1 ppm [5]: 0%; inhibition at 10 ppm [5]: 0%; disease control index (Phytophthora infestans; at 100 ppm): 5; disease control index (Phytophthora infestans; at 500 ppm): 5; disease control index (Piricularia oryzae; 600 ppm): 5; disease control index (Piricularia oryzae; 1200 ppm): 5
"CN(C)C(=S)SC(c1ccc(Cl)cc1Cl)C(C(c1ccc(Cl)cc1Cl)N(C)C)[N+](=O)[O-] (centres unmarked) [Example 8, 1,3-Bis(2,4-dichlorophenyl)-3-dimethylamino-2-nitropropyl Dimethyldithiocarbamate]",5,–,–,5 and 4,–,–,–,–,0,5,0,0,0,5 (100% effectiveness of the test compound against the specified organism),0,0,0,0,0,5 (100% effectiveness of the test compound against the specified organism),disease control index (Phytophthora infestans; at 100 ppm): 5; disease control index (Phytophthora infestans; at 500 ppm): 5; disease control index (Piricularia oryzae; at 100 ppm): 5; disease control index (Piricularia oryzae; at 500 ppm): 5
"CN(C)C(=S)SC(C[N+](=O)[O-])c1ccccc1 (stereo not drawn) [Example 13, α-(Nitromethyl)benzyl Dimethyldithiocarbamate]",5,5,5,5,100%,100%,100%,100%,5,5,5,0,5 (100% effectiveness of the test compound against the specified organism),5 (100% effectiveness of the test compound against the specified organism),5 (100% effectiveness of the test compound against the specified organism),0,5 (100% effectiveness of the test compound against the specified organism),0,5 (100% effectiveness of the test compound against the specified organism),5 (100% effectiveness of the test compound against the specified organism),"inhibition at 10 ppm (Monilinia fructicola [4]): 100%; inhibition at 100 ppm (Monilinia fructicola [4]): 100%; inhibition at 100 ppm [5]: 100%; inhibition at 1 ppm [5]: 100%; inhibition at 10 ppm [5]: 100%; disease control index (Phytophthora infestans; 150 ppm): 5; disease control index (Phytophthora infestans; 300 ppm): 5; disease control index (Phytophthora infestans; 600 ppm): 5; disease control index (Phytophthora infestans; 1200 ppm): 5; disease control index (Piricularia oryzae; 600 ppm): 5; disease control index (Piricularia oryzae; 1200 ppm): 5; scab on trees (Venturia inaequalis [10]; 1 pound/100 gallons of water, end of season): trace of scab; scab on trees (Venturia inaequalis [10]; 2 pounds/100 gallons of water, all season): free of scab all season long; phytotoxicity [11]: No phytotoxicity"
"CN(C)CC(C)(CSC(=S)N(C)C)[N+](=O)[O-] (centres unmarked) [Example 7, 3-Dimethylamino-2-methyl-2-nitropropyl Dimethyldithiocarbamate]",2,2,2,5 and 0,0%,100%,100%,0%,9,9,5,0,0,5 (100% effectiveness of the test compound against the specified organism),0,5 (100% effectiveness of the test compound against the specified organism),5 (100% effectiveness of the test compound against the specified organism),0,5 (100% effectiveness of the test compound against the specified organism),5 (100% effectiveness of the test compound against the specified organism),inhibition at 10 ppm (Monilinia fructicola [4]): 100%; inhibition at 100 ppm (Monilinia fructicola [4]): 100%; inhibition at 100 ppm [5]: 0%; disease control index (Piricularia oryzae; 600 ppm): 4; disease control index (Piricularia oryzae; 1200 ppm): 5
"CC(C(SC(=S)N(C)C)c1ccccc1)[N+](=O)[O-] (stereo not drawn) [Example 18, α-(1-Nitroethyl)benzyl Dimethyldithiocarbamate]",5,–,–,5,–,–,–,–,0,5,0,0,5 (100% effectiveness of the test compound against the specified organism),5 (100% effectiveness of the test compound against the specified organism),5 (100% effectiveness of the test compound against the specified organism),5 (100% effectiveness of the test compound against the specified organism),5 (100% effectiveness of the test compound against the specified organism),0,5 (100% effectiveness of the test compound against the specified organism),5 (100% effectiveness of the test compound against the specified organism),disease control index (Phytophthora infestans; at 100 ppm): 5; disease control index (Phytophthora infestans; at 500 ppm): 5; disease control index (Piricularia oryzae; at 100 ppm): 5; disease control index (Piricularia oryzae; at 500 ppm): 5
